Earlier results in patent publication US9546401B2, “Assays and methods for selecting a treatment regimen for a subject with depression” (The General Hospital Corporation, priority 2011, dated 2017).
Like-named read-outs stand apart in the source and are kept apart here.

Assays:
depression = conditions: parenteral and certain oral forms; cited from earlier work
[1] = system: adults with major depression; conditions: cited from earlier work
[2] = system: adults with MDD and partial or nonresponse to an SSRI; conditions: cited from earlier work

## C[S+](CC[C@H](N)C(=O)O)C[C@H]1O[C@@H](n2cnc3c(N)ncnc32)[C@H](O)[C@@H]1O (stereo partly shown) [SAM, S-adenosyl methionine]
depression
  antidepressant efficacy: antidepressant efficacy greater than placebo and comparable to that of tricyclic antidepressants

## CNCCC(Oc1ccc(C(F)(F)F)cc1)c1ccccc1 (stereo not shown) [fluoxetine]
[1]; individuals with low or deficient serum folate
  rate of non-response: 35%
[1]; serum folate levels in the normal range
  rate of non-response: 20%

## Nc1nc2c(c(=O)[nH]1)N(C=O)C(CNc1ccc(C(=O)N[C@@H](CCC(=O)O)C(=O)O)cc1)CN2 (stereo partly shown) [folinic acid, Folinic acid]
[2]; 15-30 mg/day added to SSRIs, 8 weeks, baseline 28+/−19 ng/mL
  Folate levels after treatment: 301 ± 203 ng/mL
[2]; 16 completers, baseline 19.1+/−3.9
  HAM-D-17 score after treatment: 12.8+/−7.0
[2]; ITT sample
  remission (HAM-D-17 no greater than 7): 18%
[2]; completers
  remission (HAM-D-17 no greater than 7): 19%
  response (at least 50% reduction in HAM-D-17): 31%
[2]; in vivo
  efficacy as an adjunct in SSRI-refractory depressed individuals with normal folate levels: only modestly effective
[2]; intent-to-treat (ITT) sample
  response (at least 50% reduction in HAM-D-17): 27%
